One block for each molecule: values may come before it.
Assays:
[1] = molecular target: T1, Serine/threonine-protein kinase Nek5 (Homo sapiens) (UniProt Q6P3R8); details: at 10 µM
T1 sequence (whole entry): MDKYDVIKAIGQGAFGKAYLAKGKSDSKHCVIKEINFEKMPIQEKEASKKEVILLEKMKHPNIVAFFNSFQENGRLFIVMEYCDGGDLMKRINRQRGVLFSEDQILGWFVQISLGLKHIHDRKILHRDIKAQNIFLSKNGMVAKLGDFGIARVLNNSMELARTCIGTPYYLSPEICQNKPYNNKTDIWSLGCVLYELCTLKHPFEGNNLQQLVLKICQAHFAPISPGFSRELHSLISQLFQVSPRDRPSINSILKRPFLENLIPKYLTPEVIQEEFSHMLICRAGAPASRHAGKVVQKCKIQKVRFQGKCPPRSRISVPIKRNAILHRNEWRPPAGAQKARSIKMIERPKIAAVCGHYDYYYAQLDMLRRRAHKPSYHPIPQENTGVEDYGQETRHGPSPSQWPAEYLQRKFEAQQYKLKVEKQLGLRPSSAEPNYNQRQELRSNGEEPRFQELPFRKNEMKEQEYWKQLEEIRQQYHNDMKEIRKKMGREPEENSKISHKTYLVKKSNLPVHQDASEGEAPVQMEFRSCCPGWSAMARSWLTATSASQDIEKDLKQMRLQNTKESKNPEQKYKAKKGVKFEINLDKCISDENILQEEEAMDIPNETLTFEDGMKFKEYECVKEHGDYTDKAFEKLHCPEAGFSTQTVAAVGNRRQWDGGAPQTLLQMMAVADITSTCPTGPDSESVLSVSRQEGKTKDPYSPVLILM

[2] = molecular target: Histone-lysine N-methyltransferase SUV39H2 (Homo sapiens) (UniProt Q9H5I1); test: Selectivity interaction (Methyltransferase screen (Scintillation proximity assays)) EUB0000255b SUV39H2
[3] = molecular target: NT-3 growth factor receptor (Homo sapiens, UniProt Q16288); test: Selectivity interaction (KinomeScan (DiscoverX)) EUB0000655a NTRK3; details: at 10 µM
[4] = molecular target: T2, Serine/threonine-protein kinase Nek2 (Homo sapiens) (UniProt P51955); test: Selectivity interaction (KinomeScan (DiscoverX)) EUB0000618a NEK2; details: at 10 µM
T2 sequence (whole entry): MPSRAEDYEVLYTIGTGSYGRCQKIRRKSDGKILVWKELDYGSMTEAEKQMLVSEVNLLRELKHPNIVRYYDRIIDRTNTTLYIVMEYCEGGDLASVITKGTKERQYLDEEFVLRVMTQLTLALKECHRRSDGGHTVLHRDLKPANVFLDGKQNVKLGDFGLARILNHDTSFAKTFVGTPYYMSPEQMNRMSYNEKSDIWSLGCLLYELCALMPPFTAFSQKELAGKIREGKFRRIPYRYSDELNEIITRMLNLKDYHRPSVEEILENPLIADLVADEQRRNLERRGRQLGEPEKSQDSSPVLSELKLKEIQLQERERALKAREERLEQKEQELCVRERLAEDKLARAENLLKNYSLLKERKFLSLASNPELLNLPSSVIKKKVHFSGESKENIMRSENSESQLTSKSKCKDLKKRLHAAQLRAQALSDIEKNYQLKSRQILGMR

[5] = molecular target: Serine/threonine-protein kinase PAK 6 (Homo sapiens) (UniProt Q9NQU5); test: Selectivity interaction (KinomeScan (DiscoverX)) EUB0001619a PAK6; details: at 1 µM
[6] = molecular target: Mitogen-activated protein kinase 6 (Homo sapiens) (UniProt Q16659); test: Selectivity interaction (KinomeScan (DiscoverX)) EUB0000045b MAPK6
[7] = molecular target: cAMP-dependent protein kinase catalytic subunit alpha (Homo sapiens, UniProt P17612); test: Selectivity interaction (KinomeScan (DiscoverX)) EUB0000045b PRKACA
[8] = molecular target: T3, Dual specificity tyrosine-phosphorylation-regulated kinase 2 (Homo sapiens) (UniProt Q92630); test: Selectivity interaction (KinomeScan (DiscoverX)) EUB0000045b DYRK2
T3 sequence (whole entry): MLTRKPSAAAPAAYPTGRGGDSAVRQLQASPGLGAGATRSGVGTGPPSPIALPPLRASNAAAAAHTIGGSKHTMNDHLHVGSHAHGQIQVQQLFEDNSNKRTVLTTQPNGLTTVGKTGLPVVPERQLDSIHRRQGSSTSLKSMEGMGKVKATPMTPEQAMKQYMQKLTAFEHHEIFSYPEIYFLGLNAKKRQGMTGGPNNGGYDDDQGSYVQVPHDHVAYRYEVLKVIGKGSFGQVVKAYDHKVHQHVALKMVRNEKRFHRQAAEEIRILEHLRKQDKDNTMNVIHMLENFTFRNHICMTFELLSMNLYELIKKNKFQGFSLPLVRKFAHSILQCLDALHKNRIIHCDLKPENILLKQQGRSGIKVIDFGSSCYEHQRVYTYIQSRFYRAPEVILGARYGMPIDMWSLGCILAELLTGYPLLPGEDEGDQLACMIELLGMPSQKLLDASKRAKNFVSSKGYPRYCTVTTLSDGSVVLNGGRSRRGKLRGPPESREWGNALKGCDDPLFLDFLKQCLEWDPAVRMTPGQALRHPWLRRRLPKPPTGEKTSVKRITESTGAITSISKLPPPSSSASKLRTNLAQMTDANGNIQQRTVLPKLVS

[9] = molecular target: Serine/threonine-protein kinase PLK2 (Homo sapiens, UniProt Q9NYY3); test: Selectivity interaction (Upstate Kinase Profiler service (Millipore)) EUB0000056c PLK2; details: at 1 µM
[10] = molecular target: Protein arginine N-methyltransferase 6 (Homo sapiens, UniProt Q96LA8); details: at 1 µM
[11] = molecular target: T2, Serine/threonine-protein kinase Nek2 (Homo sapiens); details: at 10 µM
[12] = molecular target: SRSF protein kinase 2 (Homo sapiens) (UniProt P78362); details: at 10 µM
[13] = system: Mast/stem cell growth factor receptor Kit (Homo sapiens), P10721 [D816H]; details: at 10 µM
[14] = system: ALK tyrosine kinase receptor (Homo sapiens), Q9UM73 [L1196M]; test: (§1) Selectivity interaction (KinomeScan (DiscoverX)) EUB0000229b ALK; details: at 1 µM
[15] = system: ALK tyrosine kinase receptor (Homo sapiens), Q9UM73 [C1156Y]; test: as §1; details: at 1 µM
[16] = molecular target: Ribosomal protein S6 kinase alpha-1 (Homo sapiens, UniProt Q15418); test: Selectivity interaction (KinomeScan (DiscoverX)) EUB0000092b RPS6KA1; details: at 10 µM
[17] = molecular target: Delta-type opioid receptor (Homo sapiens, UniProt P41143); test: Selectivity interaction (GPCR panel (PDSP screen)) EUB0000311b OPRD1; details: at 10 µM
[18] = molecular target: Vascular endothelial growth factor receptor 2 (Homo sapiens, UniProt P35968); test: Selectivity interaction (CEREP Wide Ligand Profile screen (panel of receptors, ion channels, and transporters)) EUB0001542aTs KDR

Chain of Mitogen-activated protein kinase 6 (Homo sapiens) (Q16659 whole entry): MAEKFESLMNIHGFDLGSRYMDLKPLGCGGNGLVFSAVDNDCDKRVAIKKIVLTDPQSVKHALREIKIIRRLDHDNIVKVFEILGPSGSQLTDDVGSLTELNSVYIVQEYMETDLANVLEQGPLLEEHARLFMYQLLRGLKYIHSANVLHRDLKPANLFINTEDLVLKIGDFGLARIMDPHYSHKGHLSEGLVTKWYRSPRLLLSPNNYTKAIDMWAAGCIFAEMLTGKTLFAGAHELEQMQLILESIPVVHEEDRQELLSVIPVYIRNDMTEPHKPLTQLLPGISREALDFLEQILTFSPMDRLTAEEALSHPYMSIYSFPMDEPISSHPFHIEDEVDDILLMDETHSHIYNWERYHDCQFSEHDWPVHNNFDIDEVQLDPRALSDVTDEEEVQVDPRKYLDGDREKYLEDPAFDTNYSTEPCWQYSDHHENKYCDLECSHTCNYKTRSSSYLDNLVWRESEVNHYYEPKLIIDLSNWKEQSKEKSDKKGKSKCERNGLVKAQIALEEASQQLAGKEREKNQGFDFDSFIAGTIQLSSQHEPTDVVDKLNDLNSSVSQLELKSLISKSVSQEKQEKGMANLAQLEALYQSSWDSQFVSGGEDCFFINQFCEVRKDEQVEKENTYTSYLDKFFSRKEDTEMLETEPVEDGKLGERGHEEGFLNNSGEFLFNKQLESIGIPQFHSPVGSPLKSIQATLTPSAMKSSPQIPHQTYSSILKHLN
Chain of Histone-lysine N-methyltransferase SUV39H2 (Homo sapiens) (Q9H5I1 whole entry): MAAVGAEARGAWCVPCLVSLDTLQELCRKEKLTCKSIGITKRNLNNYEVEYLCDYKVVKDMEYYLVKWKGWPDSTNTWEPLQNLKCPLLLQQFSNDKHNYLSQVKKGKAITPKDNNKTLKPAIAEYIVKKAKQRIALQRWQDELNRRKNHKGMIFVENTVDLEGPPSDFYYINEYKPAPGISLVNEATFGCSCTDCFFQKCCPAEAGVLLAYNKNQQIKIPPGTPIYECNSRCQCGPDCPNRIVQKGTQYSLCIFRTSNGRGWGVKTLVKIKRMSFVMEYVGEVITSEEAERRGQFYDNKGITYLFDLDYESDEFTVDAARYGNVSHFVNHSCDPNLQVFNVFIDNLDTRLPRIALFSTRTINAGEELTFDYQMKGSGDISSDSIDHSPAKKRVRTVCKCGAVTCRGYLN
Chain of Serine/threonine-protein kinase PLK2 (Q9NYY3 whole entry, looked up): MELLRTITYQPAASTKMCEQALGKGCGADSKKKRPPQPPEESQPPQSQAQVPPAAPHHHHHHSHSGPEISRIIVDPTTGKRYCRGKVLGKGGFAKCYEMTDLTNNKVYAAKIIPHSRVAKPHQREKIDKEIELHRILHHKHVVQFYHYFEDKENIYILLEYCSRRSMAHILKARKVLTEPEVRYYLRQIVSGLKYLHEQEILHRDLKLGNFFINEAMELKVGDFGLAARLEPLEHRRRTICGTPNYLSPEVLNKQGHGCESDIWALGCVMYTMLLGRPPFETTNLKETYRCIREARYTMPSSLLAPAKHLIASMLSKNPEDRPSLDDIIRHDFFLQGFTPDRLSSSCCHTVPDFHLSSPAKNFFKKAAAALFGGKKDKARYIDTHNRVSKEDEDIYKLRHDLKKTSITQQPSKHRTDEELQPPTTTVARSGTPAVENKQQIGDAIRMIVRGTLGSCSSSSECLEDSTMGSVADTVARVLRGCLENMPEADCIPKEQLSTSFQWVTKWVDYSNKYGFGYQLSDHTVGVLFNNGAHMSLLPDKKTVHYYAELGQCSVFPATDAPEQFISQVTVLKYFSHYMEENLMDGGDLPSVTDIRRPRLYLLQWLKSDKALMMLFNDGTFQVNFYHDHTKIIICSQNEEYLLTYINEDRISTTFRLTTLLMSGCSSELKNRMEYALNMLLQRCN
Chain of Mast/stem cell growth factor receptor Kit (Homo sapiens), P10721 [D816H] (P10721 whole entry D816H): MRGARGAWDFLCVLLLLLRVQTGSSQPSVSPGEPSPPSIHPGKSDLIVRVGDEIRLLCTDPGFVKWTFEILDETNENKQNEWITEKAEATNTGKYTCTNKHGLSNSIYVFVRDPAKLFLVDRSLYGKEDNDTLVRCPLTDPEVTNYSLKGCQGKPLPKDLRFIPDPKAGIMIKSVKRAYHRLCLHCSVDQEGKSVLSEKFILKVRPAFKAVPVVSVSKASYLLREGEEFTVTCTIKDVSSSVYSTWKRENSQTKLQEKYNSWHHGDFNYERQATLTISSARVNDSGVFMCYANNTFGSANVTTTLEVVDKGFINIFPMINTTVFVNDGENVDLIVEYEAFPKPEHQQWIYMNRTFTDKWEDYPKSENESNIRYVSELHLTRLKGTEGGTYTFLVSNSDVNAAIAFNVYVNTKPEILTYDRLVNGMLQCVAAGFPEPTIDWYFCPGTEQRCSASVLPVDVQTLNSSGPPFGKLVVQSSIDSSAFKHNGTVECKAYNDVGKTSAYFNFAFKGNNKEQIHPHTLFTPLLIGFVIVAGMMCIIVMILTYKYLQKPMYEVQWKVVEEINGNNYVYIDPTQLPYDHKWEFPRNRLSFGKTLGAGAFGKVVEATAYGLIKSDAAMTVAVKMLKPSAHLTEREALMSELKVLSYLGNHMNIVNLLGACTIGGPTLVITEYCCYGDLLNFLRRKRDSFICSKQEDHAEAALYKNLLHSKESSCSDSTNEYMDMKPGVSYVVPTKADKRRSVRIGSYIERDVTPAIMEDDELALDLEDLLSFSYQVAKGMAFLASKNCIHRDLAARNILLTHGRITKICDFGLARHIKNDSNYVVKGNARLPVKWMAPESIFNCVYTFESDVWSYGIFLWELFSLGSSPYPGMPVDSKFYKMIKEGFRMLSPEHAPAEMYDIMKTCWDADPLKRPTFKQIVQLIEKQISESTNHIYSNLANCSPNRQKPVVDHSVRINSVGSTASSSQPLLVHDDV
Chain of Ribosomal protein S6 kinase alpha-1 (Q15418 whole entry): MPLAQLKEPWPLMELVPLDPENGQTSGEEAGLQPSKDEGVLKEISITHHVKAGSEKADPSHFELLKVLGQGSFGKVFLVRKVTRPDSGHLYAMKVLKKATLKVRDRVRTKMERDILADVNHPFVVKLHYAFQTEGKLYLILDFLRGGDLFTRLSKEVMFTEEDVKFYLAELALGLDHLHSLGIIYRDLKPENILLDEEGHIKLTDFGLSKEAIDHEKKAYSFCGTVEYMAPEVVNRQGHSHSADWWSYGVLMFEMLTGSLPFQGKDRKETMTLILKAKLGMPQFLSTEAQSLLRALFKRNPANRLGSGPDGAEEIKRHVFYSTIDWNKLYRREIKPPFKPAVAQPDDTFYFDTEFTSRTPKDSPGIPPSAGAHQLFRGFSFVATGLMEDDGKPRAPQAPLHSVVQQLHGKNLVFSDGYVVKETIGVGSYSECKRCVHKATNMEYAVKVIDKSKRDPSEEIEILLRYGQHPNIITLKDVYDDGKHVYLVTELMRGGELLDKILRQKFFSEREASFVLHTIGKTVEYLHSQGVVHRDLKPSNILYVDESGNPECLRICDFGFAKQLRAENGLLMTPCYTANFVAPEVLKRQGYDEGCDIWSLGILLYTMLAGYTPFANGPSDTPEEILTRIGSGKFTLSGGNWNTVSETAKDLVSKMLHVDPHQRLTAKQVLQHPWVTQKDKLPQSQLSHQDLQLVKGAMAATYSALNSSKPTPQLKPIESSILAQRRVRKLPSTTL
Chain of Serine/threonine-protein kinase PAK 6 (Homo sapiens) (Q9NQU5 whole entry, looked up): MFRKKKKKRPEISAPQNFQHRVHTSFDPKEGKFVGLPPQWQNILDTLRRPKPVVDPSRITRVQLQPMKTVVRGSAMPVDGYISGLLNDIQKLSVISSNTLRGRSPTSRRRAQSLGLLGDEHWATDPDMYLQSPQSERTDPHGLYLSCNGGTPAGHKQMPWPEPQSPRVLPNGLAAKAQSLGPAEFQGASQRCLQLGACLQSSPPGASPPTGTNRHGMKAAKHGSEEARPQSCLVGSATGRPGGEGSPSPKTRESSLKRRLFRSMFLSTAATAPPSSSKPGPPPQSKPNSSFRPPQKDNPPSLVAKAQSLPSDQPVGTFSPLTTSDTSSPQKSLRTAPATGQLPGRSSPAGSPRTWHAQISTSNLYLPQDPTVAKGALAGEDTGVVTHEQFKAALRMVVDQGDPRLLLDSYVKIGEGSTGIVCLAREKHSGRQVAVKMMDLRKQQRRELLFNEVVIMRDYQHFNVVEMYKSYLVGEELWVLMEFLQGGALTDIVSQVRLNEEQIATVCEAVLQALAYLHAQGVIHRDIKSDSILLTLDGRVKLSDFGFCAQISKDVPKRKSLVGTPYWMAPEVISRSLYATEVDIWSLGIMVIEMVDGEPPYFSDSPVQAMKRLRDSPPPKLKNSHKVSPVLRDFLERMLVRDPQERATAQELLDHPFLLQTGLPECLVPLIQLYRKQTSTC
Chain of Protein arginine N-methyltransferase 6 (Q96LA8 whole entry, looked up): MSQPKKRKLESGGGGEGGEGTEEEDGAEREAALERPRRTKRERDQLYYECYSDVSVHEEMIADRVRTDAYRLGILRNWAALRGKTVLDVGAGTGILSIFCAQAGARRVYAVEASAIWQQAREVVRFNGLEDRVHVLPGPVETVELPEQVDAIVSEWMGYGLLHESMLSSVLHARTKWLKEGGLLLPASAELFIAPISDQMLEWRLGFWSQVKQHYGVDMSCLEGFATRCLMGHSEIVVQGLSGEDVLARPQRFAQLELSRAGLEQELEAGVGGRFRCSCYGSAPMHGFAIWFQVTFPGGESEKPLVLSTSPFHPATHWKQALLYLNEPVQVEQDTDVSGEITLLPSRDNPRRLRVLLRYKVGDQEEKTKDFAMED
Chain of Delta-type opioid receptor (P41143 whole entry): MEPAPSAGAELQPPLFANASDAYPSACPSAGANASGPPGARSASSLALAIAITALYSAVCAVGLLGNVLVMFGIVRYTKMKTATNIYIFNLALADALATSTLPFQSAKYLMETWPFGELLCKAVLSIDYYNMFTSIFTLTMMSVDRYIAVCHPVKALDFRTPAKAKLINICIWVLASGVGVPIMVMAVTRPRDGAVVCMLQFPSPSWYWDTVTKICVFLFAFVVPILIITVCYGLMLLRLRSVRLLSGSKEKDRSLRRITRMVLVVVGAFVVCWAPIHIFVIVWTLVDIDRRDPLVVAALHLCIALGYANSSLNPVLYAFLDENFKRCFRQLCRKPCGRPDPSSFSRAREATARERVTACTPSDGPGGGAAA

% of control [1]: 100%
Structure (SMILES): CCN(CC)CCCCNc1ncc2cc(-c3cc(OC)cc(OC)c3)c(NC(=O)NC(C)(C)C)nc2n1

Structure (SMILES): COCCN1CCC(c2cc(CN(C)C(=O)c3cccc(Oc4ccccc4)c3)ccn2)CC1
% activity ([2]; at 1 µM): > 95%
% activity ([2]; at 10 µM): > 90%

Structure (SMILES): CN(C)CCOc1ccc(-c2nc(-c3ccncc3)c(-c3ccc4c(c3)CC/C4=N\O)[nH]2)cc1
% of control [3]: 45%

Structure (SMILES): O[C@H]1CC[C@H](Nc2ncc3nc(Nc4c(F)cc(F)cc4F)n([C@H]4CCOC4)c3n2)CC1
% of control [4]: 100%

Structure (SMILES): N#Cc1cccc(-c2c[nH]c3ncnc(N4CCOCC4)c23)c1
% of control [5]: 66%

Structure (SMILES): C=CC(=O)Nc1cc(-n2c(=O)ccc3cnc4ccc(-c5ccc(NS(C)(=O)=O)cc5)cc4c32)ccc1C
% of control ([6]; at 1 µM): 82%
% of control ([6]; at 10 µM): 100%
% of control ([7]; at 1 µM): 83%
% of control ([7]; at 10 µM): 100%
% of control ([8]; at 1 µM): 100%
% of control ([8]; at 10 µM): 91%

% of inhibition [9]: -19%
Structure (SMILES): Cc1ccc(-c2ccc3c(ccc4sc5c(c43)NC[C@@H](C)NC5=O)n2)cn1

% activity [10]: > 90%
Structure (SMILES): CNCCN1CCC(c2cc(CN(C)C(=O)c3cccc(Oc4ccccc4)c3)ccn2)CC1

Structure (SMILES): Cc1cc([C@@H](C)Nc2ccccc2C(=O)O)c2nc(N3CCOCC3)cc(=O)n2c1 [AZD-6482]
% of control [11]: 71%
% of control [12]: 85%
% of control [13]: 88%

Structure (SMILES): COc1cc(N(C)c2ccnc3ccc(C(F)(F)F)cc23)cc(OC)c1OC
% binding [14]: 89%
% binding [15]: 83%

Structure (SMILES): CCC(=O)N1CCN(c2ccc(-n3c(=O)ccc4cnc5ccc(-c6cnc7ccccc7c6)cc5c43)cc2C(F)(F)F)CC1
% of control [16]: 100%

% of inhibition [17]: 20.5%
Structure (SMILES): CCc1ccccc1C(=O)Nc1n[nH]c2c(C)c(F)c(C3C(C#N)=C(C)N(C)C(C)=C3C#N)cc12 [BAY-3827]

IC50 [18]: 1600 nM
Structure (SMILES): Cn1cc(Nc2nccc(N3CC4CCC(C3)N4C(=O)[C@@H]3CC3(F)F)n2)cn1

Reference: ChEMBL document CHEMBL5465560, “Selectivity Literature for EUbOPEN Chemogenomic Library” (2024)
